Assays:
[1] = molecular target: T1, WT Nluc-Y2R-eYFP (Homo sapiens, UniProt P49146); conditions: small molecule antagonist vs labeled NPY; cited from earlier work
T1 construct: expressed in transfected cells; host or cells: membrane preparations of transiently transfected HEK293
T1 sequence (P49146 1-381): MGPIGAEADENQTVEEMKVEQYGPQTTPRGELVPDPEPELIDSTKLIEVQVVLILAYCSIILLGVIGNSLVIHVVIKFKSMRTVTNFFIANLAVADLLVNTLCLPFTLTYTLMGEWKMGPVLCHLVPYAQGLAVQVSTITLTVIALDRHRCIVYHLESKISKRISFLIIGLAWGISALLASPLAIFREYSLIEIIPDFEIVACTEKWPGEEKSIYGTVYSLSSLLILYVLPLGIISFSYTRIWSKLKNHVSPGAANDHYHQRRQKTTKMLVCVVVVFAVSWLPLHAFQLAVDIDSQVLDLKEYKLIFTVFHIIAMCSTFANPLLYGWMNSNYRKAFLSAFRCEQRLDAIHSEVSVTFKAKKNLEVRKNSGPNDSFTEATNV
From the text: In the following, we are addressing the Reviewer’s comments point‐by‐point. We quote statements from the Reviewer in bold face. We refer to changes made in the manuscript in yellow italics. Reviewer #1 (Remarks to the Author): In this work ...

[2] = test system: bicelle-reconstituted full-length cysteine-deficient Y2R; assay: XL-MS competition experiment; type: binding, human; conditions: 50 × molar excess competitor
Experimental: (§1) Samples were denatured in 10% SDS, 100 mM Tris-HCl (pH 7.5) and subjected to S-Trap enrichment (Protifi, Fairport, NY, USA). Afterwards, proteins were reduced, alkylated, and enzymatically digested with AspN and trypsin according to an existing protocol. Samples were stored at − 20 °C before LC-MS analysis.

[3] = test system: bicelle-reconstituted full-length cysteine-deficient Y2R; assay: XL-MS with full-length Y2R; type: binding, human; conditions: LC-TIMS-MS/MS
Experimental: as §1
Peptide mixtures were reconstituted in an aqueous solution of 3% (v/v) ACN and 0.05% (v/v) TFA prior to LC-TIMS-MS/MS analysis on an UltiMate 3000 RSLC nano-HPLC system (Thermo Fisher Scientific, Waltham, MA, USA) coupled to a timsTOF Pro mass spectrometer (Bruker Daltonics, Bremen, Germany). Peptides were trapped and desalted on a C18 precolumn (Acclaim PepMap 100, 300 μm × 5 mm, 5 μm, 100 Å, Thermo Fisher Scientific, Waltham, MA, USA) with aqueous 0.1 % (v/v) TFA at a flow rate of 30 μL/min (precolumn temperature 50 °C). Using a flow of 300 nL/min, peptide mixtures were then eluted and separated on a self-packed Picofrit C18 column, 75 µm ID x 40 cm, Tip ID 15 µm (New Objective, Littleton, MA, USA), packed with Reprosil-Pur 120 C18-AQ, 3 µm, 120 Å material (Dr. Maisch GmbH, Ammerbuch, Germany) or a µPAC 50 C18 column (PharmaFluidics, Thermo Fisher Scientific, Germany). Linear gradients were from 3% to 50% B over 90 min, 50% to 85% B (over 5 min) and 85% B (5 min); solvent A: water containing 0.1% (v/v) formic acid and solvent B: acetonitrile containing 0.1% (v/v) formic acid, the separation column was kept at 40 °C. To align results obtained with different chromatographic conditions, unmodified peptides were used as indexed retention time (iRT) standards.
Identification of cross-links was performed by a MeroX (v. 2.0.1.7, ref. [77]) search against a fasta file containing the amino acid sequences of triply diazirine-substituted [L17pL, L24pL, L30pL] […] The following settings were employed: semi-specific proteolytic cleavage: C-terminal at Lys and ArgR and N-terminal at Asp and Glu with up to 3 missed cleavages for each site and a maximum of 5 missed cleavages per peptide; peptide length of 4–25 amino acids; fixed modifications: carbamidomethylation of Cys; variable modifications: oxidation of Met; precursor and fragment mass tolerances were set to 10 ppm. […] Two searches were performed per data set, considering photo-leucine reactivity towards (i) only the acidic amino acids Asp and Glu and the protein C-terminus and (ii) reactivity towards all 20 amino acids. Peptide spectral matches were initially filtered to a 10% intensity score, a minimum score cut-off of 30 and 1% FDR (false discovery rate). Lenient FDR filters were compensated by manual validation of all proposed cross-links. In addition, DDA-PASEF data were analyzed with Skyline[78] as described recently. […]

[4] = test system: photo-NPY; assay: XL-MS, intramolecular NPY cross-links; type: binding; conditions: detected in N-term peptide experiment only
Experimental: as §1
Peptide mixtures were reconstituted in an aqueous solution of 3% (v/v) ACN and 0.05% (v/v) TFA prior to LC-TIMS-MS/MS analysis on an UltiMate 3000 RSLC nano-HPLC system (Thermo Fisher Scientific, Waltham, MA, USA) coupled to a timsTOF Pro mass spectrometer (Bruker Daltonics, Bremen, Germany). Peptides were trapped and desalted on a C18 precolumn (Acclaim PepMap 100, 300 μm × 5 mm, 5 μm, 100 Å, Thermo Fisher Scientific, Waltham, MA, USA) with aqueous 0.1 % (v/v) TFA at a flow rate of 30 μL/min (precolumn temperature 50 °C). […]
Identification of cross-links was performed by a MeroX (v. 2.0.1.7, ref. [77]) search against a fasta file containing the amino acid sequences of triply diazirine-substituted [L17pL, L24pL, L30pL] […] In addition, DDA-PASEF data were analyzed with Skyline[78] as described recently. […]

Which “Blocking of high- and low-affinity binding” value [1] does the source give for `CCN(CC)C(=O)C(c1ccccc1)N1CCN(c2ccc(NC(=O)c3ccccc3-c3cccnc3)cc2F)CC1` (stereo not shown) [JNJ-31020028, N-(4-{4-[2-(diethylamino)-2-oxo-1-phenylethyl]piperazin-1-yl}-3-fluorophenyl)-2-pyridin-3-ylbenzamide] here?
The value was “can be blocked”.

What about the “Effect of excess unlabeled ligand on cross-links” value [2] of the same molecule?
The value was “essentially abolished all cross-links”.

Which “Number of contact points to Y2R NT” value [3] does the source give for “photo-NPY: triply diazirine-substituted photo-leucine [L17pL, L24pL, L30pL] NPY variant” here?
Its value is 16.

What about the “Number of contacts to ECL2” value [3] of the same molecule?
The value was “three”.

What about the “Number of cross-links to extracellular regions of Y2R” value [3] of the same molecule?
Its value is 34.

What about the “Number of peptide-receptor cross-links” value ([3]; total) of the same molecule?
The value was 40.

What about the Intra-NPY cross-linked positions [4] of the same molecule?
Its Intra-NPY cross-linked positions is “pL30 & D6”.
